Test results reported in US10517889B2, “Modulators of SMAD7 expression” (Ionis Pharmaceuticals, Inc., priority 2017, dated 2019).
Strand notation (5' to 3'): a small letter for the sugar, then the base; units joined by * are phosphorothioate-linked, units joined directly phosphodiester-linked; [ ] holds rarer units or linkages, { } end groups; capitals alone tell only the bases. e = 2'-O-(2-methoxyethyl) (MOE); [5mC] = 5-methylcytosine; d = 2'-deoxy (DNA)

Tested on: human SMAD7 mRNA
Assay: Antisense inhibition of human SMAD7 mRNA expression in Hep3B cells by 5-10-5 MOE gapmers, single concentration, electroporation, RT-PCR (Example 1, Study 1 and 2)
Format: cell-based
Procedure, shortened: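 Hep3B cells (20,000/well) electroporated with 5-10-5 MOE gapmer at 5,000 nM or 15,000 nM for approximately 24 h. SMAD7 mRNA quantified by real-time PCR with primer probe set RTS5062 and normalized to RIBOGREEN total RNA. Values are percent inhibition relative to untreated controls.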

[1] = Study 2, electroporation with 15,000 nM antisense oligonucleotide, 5-10-5 MOE gapmers targeting SEQ ID NO: 1 and 2
[2] = electroporation, 15,000 nM antisense oligonucleotide (Study 2), 5-10-5 MOE gapmers targeting SEQ ID NO: 1 and 2
[3] = electroporation, 15,000 nM, approximately 24 hours, relative to untreated control cells, gapmers targeting SEQ ID NO: 1 and 2
[4] = electroporation with 15,000 nM antisense oligonucleotide (Study 2), 5-10-5 MOE gapmers targeting SEQ ID NO: 1 and 2
[5] = electroporation, 5,000 nM, approximately 24 hours, relative to untreated control cells, gapmers targeting SEQ ID NO: 1 and 2

Substance: 771823 (antisense e[5mC]*eT*eT*e[5mC]*e[5mC]*d[5mC]*dA*dT*dG*dT*dG*dA*d[5mC]*d[5mC]*dT*e[5mC]*eA*eG*eG*eG) [compound 771823]
- % Inhibition [1]: 49%

Substance: 771718 (antisense eA*eA*eA*eG*eT*dT*d[5mC]*dT*dA*dG*dT*dG*dT*d[5mC]*dT*eA*e[5mC]*eT*e[5mC]*e[5mC]) [compound 771718]
- % Inhibition [1]: 29%

Substance: 771388 (antisense eG*e[5mC]*eG*e[5mC]*e[5mC]*d[5mC]*dT*dG*d[5mC]*dG*d[5mC]*dG*dG*d[5mC]*dT*e[5mC]*eT*e[5mC]*e[5mC]*eG) [compound 771388]
- % inhibition of SMAD7 mRNA expression [2]: 31%

Substance: 771392 (antisense e[5mC]*eT*e[5mC]*e[5mC]*eG*dG*d[5mC]*dT*dG*d[5mC]*d[5mC]*d[5mC]*d[5mC]*dA*d[5mC]*e[5mC]*e[5mC]*e[5mC]*eG*e[5mC]) [compound 771392]
- % inhibition of SMAD7 mRNA expression [3]: 28%

Substance: 771752 (antisense eA*eA*eT*eG*eT*d[5mC]*d[5mC]*d[5mC]*dT*dG*dT*dG*dG*dG*dT*eT*eT*e[5mC]*e[5mC]*eA) [compound 771752]
- % Inhibition of SMAD7 mRNA [4]: 3%
- % inhibition of SMAD7 mRNA expression [2]: 0%

Substance: 771358 (antisense eA*eG*eT*eT*eA*dA*dT*d[5mC]*dA*dT*dT*dA*d[5mC]*dT*d[5mC]*eG*eA*eG*eT*e[5mC]) [compound 771358]
- % Inhibition [1]: 36%
- % inhibition of SMAD7 mRNA expression [5]: 53%

Substance: 771765 (antisense e[5mC]*e[5mC]*eA*eA*eG*d[5mC]*d[5mC]*dA*dG*dG*dA*dG*d[5mC]*dT*dG*e[5mC]*eT*eT*eA*eA) [compound 771765]
- % inhibition of SMAD7 mRNA expression [3]: 48%

Substance: 771566 (antisense eG*eA*e[5mC]*eA*e[5mC]*dA*dA*dA*dA*d[5mC]*dA*dA*dA*dG*dA*eG*e[5mC]*eA*e[5mC]*eG) [compound 771566]
- % inhibition of SMAD7 mRNA expression [1]: 28%

Substance: 771893 (antisense eG*eT*e[5mC]*eA*eT*d[5mC]*d[5mC]*dG*dT*d[5mC]*d[5mC]*dA*d[5mC]*dT*dG*eT*e[5mC]*eT*eG*e[5mC]) [compound 771893]
- % inhibition of SMAD7 mRNA expression [3]: 35%

Substance: 771495 (antisense e[5mC]*eT*eA*eG*e[5mC]*d[5mC]*dA*dG*d[5mC]*dA*d[5mC]*dG*dG*dG*d[5mC]*eA*eG*e[5mC]*eT*eG) [compound 771495]
- % inhibition of SMAD7 mRNA expression [1]: 18%

Substance: 771639 (antisense e[5mC]*eA*eG*e[5mC]*e[5mC]*dT*dA*dG*dG*dA*dT*dG*dG*dT*dA*e[5mC]*e[5mC]*eT*eT*eG) [compound 771639]
- % inhibition of SMAD7 mRNA expression [1]: 51%

Substance: 771637 (antisense eT*eG*eG*eT*eA*d[5mC]*d[5mC]*dT*dT*dG*dG*dG*dT*dT*dA*eT*eG*eA*e[5mC]*eG) [compound 771637]
- % inhibition of SMAD7 mRNA expression [3]: 23%

Substance: 771723 (antisense e[5mC]*e[5mC]*eA*eA*eG*dG*dT*dT*dA*d[5mC]*dA*dT*dA*d[5mC]*dA*eA*e[5mC]*e[5mC]*eT*eG) [compound 771723]
- % Inhibition [1]: 44%
- % inhibition of SMAD7 mRNA expression [5]: 0%

Substance: 771721 (antisense e[5mC]*e[5mC]*e[5mC]*eA*eG*d[5mC]*dA*d[5mC]*dT*dG*dT*dG*dA*dT*dG*eT*e[5mC]*e[5mC]*eA*eG) [compound 771721]
- % inhibition of SMAD7 mRNA expression [2]: 43%

Substance: 771940 (antisense eT*e[5mC]*e[5mC]*eT*eG*d[5mC]*dT*dG*d[5mC]*d[5mC]*d[5mC]*d[5mC]*dA*dG*d[5mC]*eA*eG*eG*e[5mC]*eT) [compound 771940]
- % Inhibition [1]: 0%

Substance: 771368 (antisense e[5mC]*eG*eG*e[5mC]*e[5mC]*dT*dT*dG*dA*dT*dG*d[5mC]*dT*dG*dA*eT*eT*eA*eT*eT) [compound 771368]
- % inhibition of SMAD7 mRNA expression [3]: 27%

Substance: 771728 (antisense eA*eA*e[5mC]*eT*eT*dT*dT*d[5mC]*dT*d[5mC]*d[5mC]*d[5mC]*d[5mC]*d[5mC]*dT*eT*eG*eG*eA*eA) [compound 771728]
- % Inhibition of SMAD7 mRNA [4]: 7%
- % inhibition of SMAD7 mRNA expression [2]: 1%

Substance: 771696 (antisense e[5mC]*eT*e[5mC]*eT*e[5mC]*d[5mC]*d[5mC]*dA*dG*dG*dA*dG*dG*dG*dT*eA*eT*eG*e[5mC]*eA) [compound 771696]
- % Inhibition of SMAD7 mRNA [4]: 0%
- % inhibition of SMAD7 mRNA expression [2]: 0%

Substance: 771481 (antisense eG*e[5mC]*eA*eG*eG*d[5mC]*dT*dG*dT*dA*d[5mC]*dG*d[5mC]*d[5mC]*dT*eT*e[5mC]*eT*e[5mC]*eG) [compound 771481]
- % Inhibition of SMAD7 mRNA [4]: 26%
- % inhibition of SMAD7 mRNA expression [2]: 0%

Substance: 771689 (antisense eA*eG*eT*eG*eT*dA*d[5mC]*dA*dT*dT*dT*dT*dA*dA*dA*eA*eA*eT*e[5mC]*eG) [compound 771689]
- % inhibition of SMAD7 mRNA expression [4]: 30%

Substance: 771447 (eA*eA*e[5mC]*eA*e[5mC]*dA*dG*d[5mC]*d[5mC]*dT*d[5mC]*dT*dT*dG*dA*e[5mC]*eT*eT*e[5mC]*e[5mC]; antisense) [compound 771447]
- % Inhibition [1]: 19%

Substance: 771647 (antisense eG*eA*eG*eT*eG*dT*dA*dT*dG*dA*dG*dT*dT*dG*dT*eA*eG*eA*eA*eG) [compound 771647]
- % inhibition of SMAD7 mRNA expression [1]: 6%

Substance: 771462 (antisense e[5mC]*eT*eG*eG*eA*d[5mC]*dA*d[5mC]*dA*dG*dT*dA*dG*dA*dG*e[5mC]*e[5mC]*eT*e[5mC]*e[5mC]) [compound 771462]
- % inhibition of SMAD7 mRNA expression [3]: 31%

Substance: 771870 (antisense eA*eG*eG*e[5mC]*eA*d[5mC]*dA*dA*dG*dT*d[5mC]*dA*dA*dG*dG*eA*eG*eG*e[5mC]*e[5mC]) [compound 771870]
- % Inhibition [1]: 15%

Substance: 771936 (antisense eT*eG*eT*eT*eT*d[5mC]*dT*dG*dT*dG*dT*dG*d[5mC]*dA*d[5mC]*eA*eT*eA*e[5mC]*eG) [compound 771936]
- % Inhibition of SMAD7 mRNA [4]: 32%
- % inhibition of SMAD7 mRNA expression [2]: 36%

Substance: 771380 (antisense eA*e[5mC]*e[5mC]*eA*eA*dG*dA*dT*d[5mC]*d[5mC]*dA*dT*d[5mC]*dT*dT*eT*eA*eA*eG*e[5mC]) [compound 771380]
- % inhibition of SMAD7 mRNA expression [2]: 0%

Substance: 771954 (antisense e[5mC]*eT*eA*eG*eA*dA*dT*dG*dA*dA*dG*dA*d[5mC]*dA*d[5mC]*e[5mC]*e[5mC]*eG*e[5mC]*e[5mC]) [compound 771954]
- % inhibition of SMAD7 mRNA expression [2]: 0%

Substance: 771761 (antisense e[5mC]*e[5mC]*e[5mC]*e[5mC]*eA*dT*dT*d[5mC]*d[5mC]*dT*d[5mC]*d[5mC]*dA*dG*dT*e[5mC]*eT*eT*eT*eA) [compound 771761]
- % inhibition of SMAD7 mRNA expression [2]: 33%

Substance: 771585 (antisense eG*eA*eG*e[5mC]*e[5mC]*dG*dT*dG*d[5mC]*dT*d[5mC]*d[5mC]*dT*dG*dG*e[5mC]*eA*eG*e[5mC]*eT) [compound 771585]
- % inhibition of SMAD7 mRNA expression [2]: 49%

Substance: 771672 (antisense eT*eT*eT*eT*eT*dT*d[5mC]*dA*dG*dG*dA*dG*dT*d[5mC]*d[5mC]*eT*eT*eT*e[5mC]*eT) [compound 771672]
- % Inhibition of SMAD7 mRNA [4]: 30%
- % inhibition of SMAD7 mRNA expression [4]: 2%

Substance: 771400 (antisense e[5mC]*eG*eA*e[5mC]*eA*dG*d[5mC]*dA*dG*d[5mC]*dA*dG*d[5mC]*dA*dG*e[5mC]*eA*eG*eG*eG) [compound 771400]
- % inhibition of SMAD7 mRNA expression [3]: 52%

Substance: 771829 (antisense eT*eG*eT*eG*e[5mC]*d[5mC]*dT*d[5mC]*dA*dG*d[5mC]*dA*dG*dT*dT*eA*eA*eT*eA*eA) [compound 771829]
- % inhibition of SMAD7 mRNA expression [3]: 14%

Substance: 771504 (antisense e[5mC]*eA*eG*e[5mC]*eT*d[5mC]*dA*d[5mC]*dG*d[5mC]*dT*d[5mC]*dT*dG*dT*e[5mC]*e[5mC]*e[5mC]*e[5mC]*eT) [compound 771504]
- % inhibition of SMAD7 mRNA expression [1]: 48%

Substance: 771882 (antisense eG*e[5mC]*eA*eT*e[5mC]*dA*dT*dG*dA*dA*dA*dA*dT*d[5mC]*dT*eT*eA*eA*eT*eA) [compound 771882]
- % inhibition of SMAD7 mRNA expression [2]: 35%

Substance: 771512 (antisense eA*eG*eT*eA*eG*dT*dT*dT*dG*dA*dA*dG*dT*dG*dT*eG*eG*e[5mC]*e[5mC]*eT) [compound 771512]
- % Inhibition of SMAD7 mRNA [4]: 34%
- % inhibition of SMAD7 mRNA expression [2]: 0%

Substance: 771812 (antisense eT*eT*eA*eA*e[5mC]*d[5mC]*d[5mC]*d[5mC]*dT*dG*d[5mC]*d[5mC]*dG*dG*dA*e[5mC]*eT*eG*e[5mC]*e[5mC]) [compound 771812]
- % Inhibition [1]: 26%

Substance: 771580 (antisense eA*eG*e[5mC]*eT*eT*dG*d[5mC]*d[5mC]*d[5mC]*dA*dG*dG*dT*dA*d[5mC]*eT*eG*e[5mC]*e[5mC]*eT) [compound 771580]
- % inhibition of SMAD7 mRNA expression [1]: 25%

Substance: 771764 (antisense eA*e[5mC]*eA*e[5mC]*eT*dT*d[5mC]*dA*d[5mC]*dA*d[5mC]*dA*d[5mC]*d[5mC]*dA*eA*eA*eG*e[5mC]*eA) [compound 771764]
- % Inhibition [1]: 20%

Substance: 771835 (antisense eA*eG*eT*eA*eA*dA*dA*dT*dG*dG*dG*dA*dA*dA*dT*eA*eA*eG*eG*e[5mC]) [compound 771835]
- % Inhibition [1]: 5%
- % inhibition of SMAD7 mRNA expression [5]: 17%

Substance: 771771 (antisense e[5mC]*eA*eG*e[5mC]*eT*d[5mC]*d[5mC]*dT*dA*d[5mC]*dT*dG*dT*dT*dG*eG*e[5mC]*eA*eG*eT) [compound 771771]
- % Inhibition [1]: 22%
- % inhibition of SMAD7 mRNA expression [5]: 63%

Substance: 771604 (antisense e[5mC]*e[5mC]*eT*eT*eG*dG*dG*dA*dA*dG*d[5mC]*d[5mC]*d[5mC]*dA*dT*e[5mC]*eT*e[5mC]*eA*eG) [compound 771604]
- % inhibition of SMAD7 mRNA expression [1]: 12%

Substance: 771892 (antisense e[5mC]*eT*eG*eA*eA*dG*dT*dT*dT*d[5mC]*dT*d[5mC]*d[5mC]*dT*d[5mC]*e[5mC]*e[5mC]*eA*eT*e[5mC]) [compound 771892]
- % Inhibition [1]: 2%
